In patent US20040261139A1, “Androgen receptor knock-out transgenic animals” (priority 2001, published 2004):
Like-named read-outs stand apart in the source and are kept apart here.

Tests used:
p21 (WAF1/CIP1) gene [1] = assay: Endogenous p21 (WAF1/CIP1) gene expression in PC-3 (AR2) cells stably transfected with AR; assay type: cell-based
Experimental: (§3) A. MCF-7 cells were transfected using Superfect (Qiagen) with 2 μg of pSG5-AR with or without 4 μg of BRCA1, as indicated. Cells were cultured in the presence of 10 nM DHT or vehicle, as indicated. B. PC-3(AR2) cells were transfected under the same conditions as the MCF-7 cells in A. except that AR was not transfected. […] PC-3(AR2) cells transfected with BRCA1 were cultured in the presence of vehicle, 10 nM DHT, or 1 μM hydroxyflutamide (HF).
(§4) The ability of AR and BRCA1 to regulate the endogenous p21 (WAF1/CIP1) gene in MCF-7 breast cancer cells was examined.

ZR-75-1 tumors = conditions: ovarectomized nude mice, estradiol and DHT pellets; expected result
Experimental: (§1) After the initial in vitro characterization of the ARKO cells, mouse xenograft experiments are performed. The ARKO cells are subcutaneously injected into ovarectomized nude mice and the parental cell lines serve as xenograft controls. This experiment allows for the comparison of AR positive and AR negative breast carcinoma cells in animals that carry a functional AR gene without the potential confounding effects of using differently derived tumor cell lines. Tumor growth rate is compared in ARKO and parental cell line recipients in response to estradiol treatment, DHT treatment, or combined administration of estradiol and DHT. […] In addition to growth rate, tumors are examined histologically to determine the morphology and degree of vascularization between ARKO cell tumors and tumors generated by the parental cell lines under the different hormonal regimes.
(§2) Female homozygous nude mice (obtained from the Jackson Laboratory) are ovarectomized. […] Ovarectomized mice are also implanted with 1.5 mg 90 day release progesterone hormonal tablets. Only the ovarian cancer based cell lines will be examined in progesterone treated animals. Animals will be subcutaneously injected with […] of the ARKO or parental cells at the time of hormonal implant Hormonal pellets will be replaced as required.

ZR-ARKO derived tumors = conditions: ovarectomized nude mice, estradiol and DHT pellets; expected result
Experimental: as §1, §2

p21 (WAF1/CIP1) gene [2] = conditions: 10 nM DHT, MCF-7 cells transfected with AR
Experimental: as §3, §4

AR = molecular target: T1, AR (Homo sapiens, UniProt P10275); assay: AR transcriptional activity, MMTV-CAT reporter gene in DU145 cells transfected with AR with ARA70 or empty vector; assay type: cell-based; conditions: 10^-10 to 10^-6 M, presence or absence of ARA70
T1 construct: expressed in transfected cells; host or cells: DU145
T1 sequence (P10275 1-920): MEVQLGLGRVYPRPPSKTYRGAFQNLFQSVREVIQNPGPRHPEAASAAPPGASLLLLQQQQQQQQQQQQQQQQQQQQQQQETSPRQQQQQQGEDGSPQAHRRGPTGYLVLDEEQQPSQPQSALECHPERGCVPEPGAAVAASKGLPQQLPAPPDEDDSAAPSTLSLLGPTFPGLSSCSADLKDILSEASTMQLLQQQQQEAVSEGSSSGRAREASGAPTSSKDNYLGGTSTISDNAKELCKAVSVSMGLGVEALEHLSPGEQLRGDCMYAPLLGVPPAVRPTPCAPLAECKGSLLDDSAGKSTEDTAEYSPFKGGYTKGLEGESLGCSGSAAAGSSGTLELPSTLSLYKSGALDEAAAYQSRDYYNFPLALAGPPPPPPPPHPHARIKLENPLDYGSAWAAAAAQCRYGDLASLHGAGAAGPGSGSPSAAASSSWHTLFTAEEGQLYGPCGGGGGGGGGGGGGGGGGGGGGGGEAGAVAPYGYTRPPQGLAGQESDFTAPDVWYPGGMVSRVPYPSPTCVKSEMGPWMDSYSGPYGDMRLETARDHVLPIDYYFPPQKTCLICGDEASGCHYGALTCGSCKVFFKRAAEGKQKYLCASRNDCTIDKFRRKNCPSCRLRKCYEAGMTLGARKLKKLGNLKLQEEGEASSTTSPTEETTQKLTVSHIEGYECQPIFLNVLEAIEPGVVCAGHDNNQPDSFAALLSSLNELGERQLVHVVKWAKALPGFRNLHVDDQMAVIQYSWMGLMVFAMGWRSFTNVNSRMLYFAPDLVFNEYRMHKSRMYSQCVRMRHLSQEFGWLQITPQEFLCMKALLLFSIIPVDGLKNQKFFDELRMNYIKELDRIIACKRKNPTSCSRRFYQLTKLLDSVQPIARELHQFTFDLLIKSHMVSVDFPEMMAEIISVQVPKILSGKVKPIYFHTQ
Description: The DHT treatments were taken as the positive control. Data represents an average of three independent experiments.
PSA is an androgen target gene that is not transcriptionally activated by the ER (58).

C[C@]12CCC(=O)C[C@@H]1CC[C@@H]1[C@@H]2CC[C@]2(C)[C@@H](O)CC[C@@H]12 [DHT, 5α-dihydrotestosterone]
endogenous p21 (WAF1/CIP1) gene expression (p21 (WAF1/CIP1) gene [1]; 10 nM DHT, PC-3 (AR2) cells): confirmed | estradiol-mediated proliferation of ZR-75-1 tumors (ZR-75-1 tumors): expected to inhibit | estradiol induced proliferation of ZR-ARKO derived tumors in the presence of DHT (ZR-ARKO derived tumors): expected to continue estradiol induced proliferation | endogenous p21 (WAF1/CIP1) gene expression (p21 (WAF1/CIP1) gene [2]): induced endogenous p21 (WAF1/CIP1) gene expression

C[C@]12CC[C@@H]3c4ccc(O)cc4C[C@@H](CCCCCCCCC[S+]([O-])CCCC(F)(F)C(F)(F)F)[C@H]3[C@@H]1CC[C@@H]2O (stereo partly drawn) [ICI182, 780]
induction of AR mediated transcription (AR): unable to induce AR mediated transcription

CC(C)(O)C(=O)Nc1ccc([N+](=O)[O-])c(C(F)(F)F)c1 [hydroxyflutamide]
effect on DHT induction of p21 (WAF1/CIP1) (p21 (WAF1/CIP1) gene [1]; 1 μM hydroxyflutamide, PC-3 (AR2) cells transfected with BRCA1): blocks the DHT induction
